According to BindingDB's records for doi:10.1016/j.ejmech.2012.08.033 (2012):

molecular target: Casein kinase I isoform alpha (Homo sapiens, UniProt P48729); test: Inhibition of CK1 after 30 mins by liquid scintillation counter
Sequence (P48729 whole entry, canonical isoform): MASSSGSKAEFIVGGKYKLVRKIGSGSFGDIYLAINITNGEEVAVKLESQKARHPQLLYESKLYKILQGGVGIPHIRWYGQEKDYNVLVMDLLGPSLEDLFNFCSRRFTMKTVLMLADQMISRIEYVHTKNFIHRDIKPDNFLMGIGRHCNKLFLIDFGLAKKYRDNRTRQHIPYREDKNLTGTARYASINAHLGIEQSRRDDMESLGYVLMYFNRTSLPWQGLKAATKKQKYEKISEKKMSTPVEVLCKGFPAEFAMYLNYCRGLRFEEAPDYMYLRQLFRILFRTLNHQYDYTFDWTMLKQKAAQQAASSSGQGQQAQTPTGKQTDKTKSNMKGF

| IC50 | Structure (SMILES) |
| --- | --- |
| 180 nM | CC(C)n1cnc2c(NCc3ccc(-c4ccccn4)cc3)nc(NC[C@@H](O)CO)nc21 |
| 390 nM | CC(C)n1cnc2c(NCc3ccc(-c4ccccn4)cc3)nc(N3C[C@H](O)C[C@H]3CO)nc21 |
| 660 nM | CC(C)n1cnc2c(NCc3ccc(-c4ccccn4)cc3)nc(NCC[C@H](O)CO)nc21 |
| 150 nM | CC(C)[C@H](N)C(=O)OC[C@H](O)CNc1nc(NCc2ccc(-c3ccccn3)cc2)c2ncn(C(C)C)c2n1 |
